The text below walks through data of US10316035B2, “Triazolopyridine inhibitors of myeloperoxidase” (BRISTOL-MYERS SQUIBB COMPANY, priority 2015, dated 2019).

One experiment has as its target T1, myeloperoxidase (MPO) (Homo sapiens, UniProt P05164).
T1 sequence (P05164 49-745): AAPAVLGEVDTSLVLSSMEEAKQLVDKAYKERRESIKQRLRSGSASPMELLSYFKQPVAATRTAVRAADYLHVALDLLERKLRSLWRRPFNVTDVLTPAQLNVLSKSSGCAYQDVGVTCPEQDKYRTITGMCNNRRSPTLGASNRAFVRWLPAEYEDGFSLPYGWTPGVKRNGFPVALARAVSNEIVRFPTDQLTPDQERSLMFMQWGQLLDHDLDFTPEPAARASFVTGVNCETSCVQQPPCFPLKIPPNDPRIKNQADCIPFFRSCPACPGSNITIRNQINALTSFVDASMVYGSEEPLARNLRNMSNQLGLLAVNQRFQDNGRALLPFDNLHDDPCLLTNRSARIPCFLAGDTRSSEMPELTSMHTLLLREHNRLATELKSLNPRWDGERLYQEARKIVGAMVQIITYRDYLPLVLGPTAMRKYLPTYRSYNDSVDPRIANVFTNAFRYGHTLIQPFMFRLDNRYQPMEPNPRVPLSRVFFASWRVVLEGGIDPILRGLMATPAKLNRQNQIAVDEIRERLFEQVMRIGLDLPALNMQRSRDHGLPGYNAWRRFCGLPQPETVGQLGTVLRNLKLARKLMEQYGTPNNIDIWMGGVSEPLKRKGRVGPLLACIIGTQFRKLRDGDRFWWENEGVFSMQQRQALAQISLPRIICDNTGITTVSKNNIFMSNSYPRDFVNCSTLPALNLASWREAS
The experiment is described as follows: MPO peroxidation assay (Amplex Red assay). The experiment is classed as biochemical.
Details: not given
As to the method: MPO Peroxidation Assay (Amplex Red Assay)
MPO peroxidation activity was measured in 100 mM KPi (pH 7.4) by utilizing the non-fluorescent reagent Amplex Red (Invitrogen catalog # A12222) which can be oxidized to the highly fluorescent resorufin. Amplex Red is oxidized by the peroxidase action of MPO to resorufin. Reactions were carried out in 50 μL total volume by adding a 25 μL mixture of 200 pM myeloperoxidase and 40 nM H2O2(Sigma #349887) to 100 nL inhibitor in 100% DMSO in a 384 well Perkin Elmer Optiplate. Enzyme and compound were preincubated for ten minutes at room temperature.
After the ten minute preincubation, 25 μL of an Amplex Red mixture containing 200 μM Amplex Red and 10 mM H2O2 was added to the plate. Kinetic determinations were carried out immediately on a Perkin Elmer Envision (15 minute kinetic read, Ex: 535 nm, Em: 590 nm).
IC50 values were calculated by determining the slope of the linear portion of the kinetic trace ([…]), and using that calculated slope to determine % inhibition occurring at each concentration of inhibitor using the following equation:
[formula] where A=minimal Y value (activity level of inhibited sample), B=maximal Y value (activity level of uninhibited sample), C=Log IC50, D=Hill Slope, x=concentration of inhibitor. MPO Chlorination Assay (APF Assay)
For the compound `Cn1ccc(-c2cccc(COc3cc(N)nc4[nH]nnc34)c2)n1` [Example 5, 7-(3-(1-Methyl-1H-pyrazol-3-yl)benzyloxy)-3H-[1,2,3]triazolo[4,5-b]pyridin-5-amine], the IC50 – broadly, the concentration needed to halve the response being measured – lay in the range of 1 to 100 nM.

For the compound `Nc1cc(OCc2cccc(Cl)c2)c2nn[nH]c2n1` [Example 10, 7-(3-Chlorobenzyloxy)-3H-[1,2,3]triazolo[4,5-b]pyridin-5-amine], the IC50 was 1 to 100 nM.

Turning to `Nc1cc(OCc2ccc(Cl)cc2)c2nn[nH]c2n1` [Example 11, 7-(4-Chlorobenzyloxy)-3H-[1,2,3]triazolo[4,5-b]pyridin-5-amine], the IC50 fell in the range of 1 to 100 nM.

As to `Nc1cc(OCc2ccccc2Cl)c2nn[nH]c2n1` [Example 12, 7-(2-Chlorobenzyloxy)-3H-[1,2,3]triazolo[4,5-b]pyridin-5-amine], the IC50 lay in the range of 1 to 100 nM.

The same experiment, now with this note: MPO peroxidation, potency range class; read-out: Amplex Red IC50.
For the compound `CCC(F)(F)C(Oc1cc(N)nc2[nH]nnc12)c1ccccc1` (racemic) [Example 135, 7-(2,2-Difluoro-1-phenylbutoxy)-3H-[1,2,3]triazolo[4,5-b]pyridin-5-amine], the IC50 lay within 101 to 999 nM.

With `CCC(F)(F)C(Oc1cc(N)nc2[nH]nnc12)c1ccccc1OC` (racemic) [Example 136, 7-(2,2-Difluoro-1-(2-methoxyphenyl)butoxy)-3H-[1,2,3]triazolo[4,5-b]pyridin-5-amine], the IC50 lay within 101 to 999 nM.

With `Nc1cc(OC(c2ccccc2)C(F)F)c2nn[nH]c2n1` (racemic) [Example 138, 7-(2,2-Difluoro-1-phenylethoxy)-3H-[1,2,3]triazolo[4,5-b]pyridin-5-amine], the IC50 was in the range of 101 to 999 nM.

As to `CCC(F)(F)C(Oc1cc(N)nc2[nH]nnc12)c1ccccc1` (single isomer, unassigned) [Example 137, 7-(2,2-Difluoro-1-phenylbutoxy)-3H-[1,2,3]triazolo[4,5-b]pyridin-5-amine], the IC50 fell in the range of 1 to 100 nM.

For `Nc1cc(OCc2ccc(OC(F)(F)F)cc2)c2nn[nH]c2n1` [Example 1, 7-(4-(Trifluoromethoxy)benzyloxy)-3H-[1,2,3]triazolo[4,5-b]pyridin-5-amine], the IC50 fell in the range of 1 to 100 nM.

With `Nc1cc(OCc2cccc(-n3cncn3)c2)c2nn[nH]c2n1` [Example 3, 7-(3-(1H-1,2,4-Triazol-1-yl)benzyloxy)-3H-[1,2,3]triazolo[4,5-b]pyridin-5-amine], the IC50 lay within 1 to 100 nM.

For `Nc1cc(OCc2cccc(S(=O)(=O)N3CCOCC3)c2)c2nn[nH]c2n1` [Example 4, 7-(3-(Morpholinosulfonyl)benzyloxy)-3H-[1,2,3]triazolo[4,5-b]pyridin-5-amine], the IC50 fell in the range of 101 to 999 nM.

As to `Cc1nccn1-c1cccc(COc2cc(N)nc3[nH]nnc23)c1` [Example 7, 7-(3-(2-Methyl-1H-imidazol-1-yl)benzyloxy)-3H-[1,2,3]triazolo[4,5-b]pyridin-5-amine], the IC50 is 101 to 999 nM.

Turning to `Nc1cc(OCc2cccc(OC(F)(F)F)c2)c2nn[nH]c2n1` [Example 13, 7-(3-(Trifluoromethoxy)benzyloxy)-3H-[1,2,3]triazolo[4,5-b]pyridin-5-amine], the 50% inhibitory concentration (IC50) was 1 to 100 nM.

Turning to `Nc1cc(OCc2cccc(Oc3ccccc3)c2)c2nn[nH]c2n1` [Example 16, 7-(3-Phenoxybenzyloxy)-3H-[1,2,3]triazolo[4,5-b]pyridin-5-amine], the IC50 was 101 to 999 nM.

Regarding `Nc1cc(OCc2ccc(OC(F)F)cc2)c2nn[nH]c2n1` [Example 17, 7-(4-(Difluoromethoxy)benzyloxy)-3H-[1,2,3]triazolo[4,5-b]pyridin-5-amine], the IC50 fell in the range of 101 to 999 nM.

With `Nc1cc(OCc2ccccc2OCc2ccccc2)c2nn[nH]c2n1` [Example 20, 7-(2-(Benzyloxy)benzyloxy)-3H-[1,2,3]triazolo[4,5-b]pyridin-5-amine], the IC50 was in the range of 1 to 100 nM.

As to `Nc1cc(OCc2ccccc2OC(F)(F)F)c2nn[nH]c2n1` [Example 21, 7-(2-(Trifluoromethoxy)benzyloxy)-3H-[1,2,3]triazolo[4,5-b]pyridin-5-amine], the IC50 is 1 to 100 nM.

Regarding `COC(=O)c1cccc(COc2cc(N)nc3[nH]nnc23)c1` [Example 22, Methyl 3-((5-amino-3H-[1,2,3]triazolo[4,5-b]pyridin-7-yloxy)methyl)benzoate], the IC50 is 1 to 100 nM.

For `COC(=O)c1cccc(COc2cc(N)nc3[nH]nnc23)c1Cl` [Example 24, Methyl 3-((5-amino-3H-[1,2,3]triazolo[4,5-b]pyridin-7-yloxy)methyl)-2-chlorobenzoate], the 50% inhibitory concentration (IC50) fell in the range of 1 to 100 nM.

As to `Nc1cc(OCc2cccc(C(=O)N3CCOCC3)c2)c2nn[nH]c2n1` [Example 25, (3-((5-Amino-3H-[1,2,3]triazolo[4,5-b]pyridin-7-yloxy)methyl)phenyl)(morpholino)methanone], the IC50 was in the range of 101 to 999 nM.

For `COc1c(COc2cc(N)nc3[nH]nnc23)cccc1C(F)(F)F` [Example 26], the IC50 is 1 to 100 nM.

On to `Nc1cc(OCc2cc(OC(F)(F)F)ccc2F)c2nn[nH]c2n1` [Example 27, 7-(2-Fluoro-5-(trifluoromethoxy)benzyloxy)-3H-[1,2,3]triazolo[4,5-b]pyridin-5-amine], for which the IC50 fell in the range of 1 to 100 nM.

Take `Nc1cc(OCc2cc(C(F)(F)F)ccc2Cl)c2nn[nH]c2n1` [Example 28, 7-(2-Chloro-5-(trifluoromethyl)benzyloxy)-3H-[1,2,3]triazolo[4,5-b]pyridin-5-amine]: the IC50 fell in the range of 1 to 100 nM.

Take `Nc1cc(OCc2cc(C(F)(F)F)cc(C(F)(F)F)c2)c2nn[nH]c2n1` [Example 29, 7-(3,5-Bis(trifluoromethyl)benzyloxy)-3H-[1,2,3]triazolo[4,5-b]pyridin-5-amine]: the IC50 was 1 to 100 nM.

Regarding `COc1ccc(C(F)(F)F)cc1COc1cc(N)nc2[nH]nnc12` [Example 30, 7-(2-Methoxy-5-(trifluoromethyl)benzyloxy)-3H-[1,2,3]triazolo[4,5-b]pyridin-5-amine], the IC50 was 1 to 100 nM.

In the case of `Nc1cc(OCc2c(Cl)cccc2OC(F)(F)F)c2nn[nH]c2n1` [Example 31, 7-(2-Chloro-6-(trifluoromethoxy)benzyloxy)-3H-[1,2,3]triazolo[4,5-b]pyridin-5-amine], the IC50 fell in the range of 1 to 100 nM.

Turning to `Nc1cc(OCc2cc(OC(F)F)ccc2F)c2nn[nH]c2n1` [Example 32, 7-(5-(Difluoromethoxy)-2-fluorobenzyloxy)-3H-[1,2,3]triazolo[4,5-b]pyridin-5-amine], the IC50 fell in the range of 1 to 100 nM.

As for `NC(=O)c1cccc(COc2cc(N)nc3[nH]nnc23)c1Cl` [Example 33, 3-((5-Amino-3H-[1,2,3]triazolo[4,5-b]pyridin-7-yloxy)methyl)-2-chlorobenzamide], the IC50 is 101 to 999 nM.

Consider `COc1ccc(OC(F)(F)F)cc1COc1cc(N)nc2[nH]nnc12` [Example 35, 7-(2-Methoxy-5-(trifluoromethoxy)benzyloxy)-3H-[1,2,3]triazolo[4,5-b]pyridin-5-amine], for which the IC50 fell in the range of 1 to 100 nM.

Consider `Nc1cc(OCc2ccccc2OCC(=O)NCC2CC2)c2nn[nH]c2n1` [Example 37, 2-(2-((5-Amino-3H-[1,2,3]triazolo[4,5-b]pyridin-7-yloxy)methyl)phenoxy)-N-(cyclopropylmethyl)acetamide], for which the IC50 was 101 to 999 nM.

For `Nc1cc(OCc2ccccc2Oc2ccccc2)c2nn[nH]c2n1` [Example 38, 7-(2-Phenoxybenzyloxy)-3H-[1,2,3]triazolo[4,5-b]pyridin-5-amine], the IC50 was 1 to 100 nM.
